Earlier results in US20250099481A1, “BCL-2 INHIBITORS” (Newave Pharmaceutical Inc., priority 2022, published 2025).

How the values were obtained:
Bcl-w = target: T1, Bcl-w (Homo sapiens, UniProt Q92843)
T1 sequence (Q92843 1-193): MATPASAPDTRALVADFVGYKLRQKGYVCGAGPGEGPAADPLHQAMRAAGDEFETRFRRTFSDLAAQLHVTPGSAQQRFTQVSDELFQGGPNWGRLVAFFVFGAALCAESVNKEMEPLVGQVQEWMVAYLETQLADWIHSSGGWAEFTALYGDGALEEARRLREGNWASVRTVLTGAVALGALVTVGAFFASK

H345 xenograft = settings: 100 mg/kg/day, H345 xenograft model
[1] = tested on: xenograft models of small-cell lung cancer and acute lymphoblastic leukemia; settings: oral administration alone
[2] = in vivo
CLL = settings: read-out: average EC50, apoptosis
RS4;11 xenografts = settings: single dose of 100 mg/kg
[3] = tested on: DoHH2, Granta-519 xenografts; settings: single agent or in combination with Bendamustine and other agents
[4] = tested on: CLL who have 17p deletion; settings: Human Phase I and II data, CLL with 17p deletion

## CC1(C)CCC(c2ccc(Cl)cc2)=C(CN2CCN(c3ccc(C(=O)NS(=O)(=O)c4ccc(N[C@H](CCN5CCOCC5)CSc5ccccc5)c(S(=O)(=O)C(F)(F)F)c4)cc3)CC2)C1 [ABT-263]
Bcl-w
  Ki: 1 nM
SCLC H146 cell line
  IC50: 110 nM
H345 xenograft
  TGI: 80%
  treated tumors indicating at least a 50% reduction in tumor volume: 20%
[1]
  tumor response: complete tumor regressions
Circulating platelets; clinical trial, inhibition of BCL-XL
  number of circulating platelets: rapid, concentration-dependent decrease in the number of circulating platelets
Circulating platelets; single-agent treatment in patients
  dose-limiting toxicity: thrombocytopenia is the dose-limiting toxicity

## CN(C)CC[C@H](CSc1ccccc1)Nc1ccc(S(=O)(=O)NC(=O)c2ccc(N3CCN(Cc4ccccc4-c4ccc(Cl)cc4)CC3)cc2)cc1[N+](=O)[O-] [ABT-737]
[2]
  oral bioavailability: not orally bioavailable
other
  aqueous solubility: low aqueous solubility
Established tumors
  efficacy in animal models: improves survival, causes regression of established tumors, and produces cures in a high percentage of the mice

## ABT-199
RS4;11 cells
  EC50: 8 nM
RS4;11 cells; cytochrome c release, caspase activation, accumulation of sub-G0/G1 DNA
  apoptosis induction: induces a rapid apoptosis
CLL
  EC50: 3 nM
RS4;11 xenografts
  maximal tumor growth inhibition: 95%
  tumor growth delay: 152%
[3]
  xenograft growth: inhibits xenograft growth
[4]
  clinical efficacy: highly efficacious
